Some results are limits rather than exact numbers.

This passage reports IC50 results from the Kinase Knowledgebase extract (Sharma et al. 2016).

In the experiment the target is CDK2 (human) (UniProt P24941). Nature of the experiment: Enzyme Assay.

For the compound `CS(=O)(=O)c1cccc(Nc2nccc(-c3cccc4[nH]ccc34)n2)c1`, the IC50 was less than 5 µM.
In the case of `Cc1cnc(Nc2cccc(S(C)(=O)=O)c2)nc1-c1cccc2[nH]ccc12` it was less than 5 µM; in that of `O=C(Cn1ccc2c(-c3ccnc(Nc4cccc(Cl)c4)n3)cccc21)NCCO`, less than 5 µM; in that of `CNC(=O)Cn1ccc2c(-c3ccnc(Nc4cccc(Cl)c4)n3)cccc21`, less than 5 µM.
The result for `OCCCn1ccc2c(-c3ccnc(Nc4cccc(Cl)c4)n3)cccc21` reads less than 5 µM; that for `CC(C)(C)NC(=O)Cn1ccc2c(-c3ccnc(Nc4cccc(Cl)c4)n3)cccc21`, less than 5 µM.
In the case of `O=C(Cn1ccc2c(-c3ccnc(Nc4cccc(Cl)c4)n3)cccc21)NCC1CCCN1` (stereo unspecified) it was less than 5 µM.
Compound `Cc1cnc(Nc2cccc(S(N)(=O)=O)c2)nc1-c1cccc2[nH]ccc12` displayed an IC50 of less than 5 µM.
`COc1cnc(Nc2cccc(S(N)(=O)=O)c2)nc1-c1cccc2[nH]ccc12`: the IC50 is less than 5 µM.
Compound `CN(C)C(=O)Cn1ccc2c(-c3ccnc(Nc4cccc(Cl)c4)n3)cccc21` had an IC50 of less than 5 µM.
Compound `CN(C)CCCn1ccc2c(-c3ccnc(Nc4cccc(Cl)c4)n3)cccc21` had an IC50 of less than 5 µM.
For `CN(C)CCn1ccc2c(-c3ccnc(Nc4cccc(Cl)c4)n3)cccc21`, the IC50 is less than 5 µM.
In the case of `Cc1ccc2[nH]ccc2c1-c1ccnc(Nc2cccc(S(C)(=O)=O)c2)n1` it was less than 5 µM; in that of `Cn1ccc2c(-c3ccnc(Nc4cccc(Cl)c4)n3)cccc21`, less than 5 µM; in that of `OCCn1ccc2c(-c3ccnc(Nc4cccc(Cl)c4)n3)cccc21`, less than 5 µM.
In the case of `NS(=O)(=O)c1cccc(Nc2ncc(F)c(-c3cccc4[nH]ccc34)n2)c1` it was less than 5 µM.
